How the values were obtained:
PSMA+HEK cells [1] = experiment: Two-color flow cytometry ADCP (CD64) assay with mAb on PSMA+HEK cells; format: cell-based, human
Text: ADCP flow cytometry experiments were run on a BD LSRII Flow Cytometer. The human IgG isotype control used was purchased from Jackson ImmunoResearch (009-000-003). The human IgG1 monoclonal anti-DNP antibody (mAb) was purchased from acrobiosystems (DNP-M2). PSMA expression was confirmed with an anti-PSMA antibody Alexa 647 conjugate (Novus Biologicals, Catalog #FAB4234R). For PSMA competition controls, PMPA was purchased from Sigma (SML1612). Hek-293T (PSMA+/−) cell lines were generously given by Dr. Cyril Barinka (Institute of Biotechnology CAS, Czech Republic). U937 cells were generously given by Dr. John Valliant (McMaster University, Canada). LNCaP cells were generously given by Dr. Karen Mossman (McMaster University, Canada). IFN-γ was purchased from Fischer Scientific (PHC4031). Ultra low IgG FBS was purchased from Fischer Scientific (A3381901). RPMI-1640 was purchased as a powder from Fischer Scientific (31800089) and resuspended. DMEM was purchased as a powder from Fischer Scientific (12800082) and resuspended. […]
For preparation of effector monocytes, 24 hours prior to inducing phagocytosis U937 monocytes were seeded at 500,000 cells/mL and activated with IFN-γ ([…]). After incubation, these cells were then counted and washed twice with serum free assay media (neat RPMI). […] These cells were then counted and washed twice with serum free assay media (neat RPMI). […]

PSMA+HEK cells [2] = experiment: CD16α activation assay with pan human IgG as source of sAb; format: cell-based; conditions: pan IgG 230 μM, ~10 nM anti-DNP IgG
Method: Preparation of antibody-CIR/ARM stocks were mixed overnight prior to addition to the ADCC plate. In the case of mmAb and mAb, incubation was carried out at 600 nM antibody and 1.2 μM CIR or ARM. In the case of IgG from serum, incubation was completed at 230 μM antibody and 8.7 μM CIR or ARM. In all cases, DMSO was kept close to 1%. After the overnight incubation, a dilution series was completed on the antibody-CIR/ARM stocks in RPMI (1% DMSO). Target cells were seeded at a density of 2.5×10^4 cells per well in opaque 96 well flat-bottom plates (Corning Costar, 3917) in complete media. Sixteen hours after seeding, cells were washed gently with 100 μL of neat RPMI. To the cells, 25 μL of RPMI supplemented with 4% ultra-low IgG FBS was added followed by 25 μL of antibody+/−CIR/ARM conditions described above. After a 30-minute incubation, 25 μL of supplemented RPMI containing 7.5×10^4 Jurkat effector cells expressing human FcgRIlla (CD16) were added to each well. The plates were then incubated for 6 additional hours. 75 μL of Bio-Glo Luciferase Assay Reagent was added to each well, and luminescence was quantified using the SpectraMax i3 plate reader.
Depleted serum IgG is derived from pan serum human IgG passed through DNP coated beads to remove endogenous anti-DNP IgG. […]

## O=C(O)CC[C@H](NC(=O)N[C@@H](CCCCNC(=O)NCCOCCOCCOCCOCCOCCOCCOCCOC(=O)n1cnc(CCNC(=O)CNc2ccc([N+](=O)[O-])cc2[N+](=O)[O-])c1)C(=O)O)C(=O)O [CIR 3]
PSMA+HEK cells [1]
  CD64 based target immune recognition (phagocytosis): substantial functional enhancement relative to ARM 11 across all antibody concentrations tested
PSMA+HEK cells [2]
  CD16α activation: mediated efficient CD16α activation

From patent US11827624B2, “Covalent immune recruiter compounds for immune cell recognition and associated uses” (McMaster University, priority 2020, dated 2023)
